Assay results taken from patent US9957264B2 (Merck Sharp & Dohme Corp., priority 2013, dated 2018).

Legend:
[1] = target: JAK2 (recombinant purified GST-tagged catalytic domain) (Homo sapiens (Human), UniProt O60674); test: Jak Biochemical HTRF Assay (JAK2); conditions: [ATP] 8.5 μM
[2] = target: JAK1 (recombinant purified GST-tagged catalytic domain) (Homo sapiens (Human), UniProt P23458); test: Jak Biochemical HTRF Assay (JAK1); conditions: [ATP] 31.8 μM
Summary of the method: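 GST-tagged human catalytic domains of JAK1 or JAK2 phosphorylated a biotinylated peptide substrate for 120 min at room temperature after ATP addition. Reaction quenched with EDTA stop buffer containing streptavidin-Dylight 650 and Eu-pY20 antibody; HTRF 665/615 nm ratio normalized to untreated controls, IC50 from 4-parameter fit.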

Sequence of JAK1 (recombinant purified GST-tagged catalytic domain) (P23458 875-1153): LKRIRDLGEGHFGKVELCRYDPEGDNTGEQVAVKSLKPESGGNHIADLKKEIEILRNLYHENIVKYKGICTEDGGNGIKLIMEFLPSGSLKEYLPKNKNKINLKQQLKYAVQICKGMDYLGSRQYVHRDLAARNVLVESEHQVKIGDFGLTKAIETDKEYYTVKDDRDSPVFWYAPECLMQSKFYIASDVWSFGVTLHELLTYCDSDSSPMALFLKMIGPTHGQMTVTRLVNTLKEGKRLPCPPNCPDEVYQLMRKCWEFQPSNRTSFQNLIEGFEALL
Sequence of JAK2 (recombinant purified GST-tagged catalytic domain) (O60674 849-1124): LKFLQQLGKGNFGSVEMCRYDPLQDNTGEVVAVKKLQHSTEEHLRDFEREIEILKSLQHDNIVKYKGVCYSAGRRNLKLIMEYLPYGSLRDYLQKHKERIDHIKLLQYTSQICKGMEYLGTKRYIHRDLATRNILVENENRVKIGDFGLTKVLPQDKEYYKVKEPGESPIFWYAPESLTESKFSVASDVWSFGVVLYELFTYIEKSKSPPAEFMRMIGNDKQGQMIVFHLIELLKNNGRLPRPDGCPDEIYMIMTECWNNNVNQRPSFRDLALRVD

CC(C)(C)NS(=O)(=O)c1ccc(Nc2nn(C3(CC#N)CCN(C(=O)C(C)(F)F)CC3)c3cc[nH]c(=O)c23)cc1 [Example 5-56, N-(tert-butyl)-4-((1-(4-(cyanomethyl)-1-(2,2-difluoropropanoyl)piperidin-4-yl)-4-oxo-4,5-dihydro-1H-pyrazolo[4,3-c]pyridin-3-yl)amino)benzene-sulfonamide]
IC50 [1]: 0.19 nM
IC50 [2]: 0.12 nM

CC(C)S(=O)(=O)c1ccc(Nc2nn(C3(CC#N)CCN(C(=O)C(C)(F)F)CC3)c3cc[nH]c(=O)c23)cc1 [Example 5-57, 2-(1-(2,2-difluoropropanoyl)-4-(3-((4-(isopropylsulfonyl)phenyl)amino)-4-oxo-4,5-dihydro-1H-pyrazolo[4,3-c]pyridin-1-yl)piperidin-4-yl)acetonitrile]
IC50 [1]: 0.13 nM
IC50 [2]: 0.08 nM

CN(C(C)(C)C)S(=O)(=O)c1ccc(Nc2nn(C3(CC#N)CCN(C(=O)C(C)(F)F)CC3)c3cc[nH]c(=O)c23)cc1 [Example 5-58, N-(tert-butyl)-4-((1-(4-(cyanomethyl)-1-(2,2-difluoropropanoyl)piperidin-4-yl)-4-oxo-4,5-dihydro-1H-pyrazolo[4,3-c]pyridin-3-yl)amino)-N-methylbenzenesulfonamide]
IC50 [1]: 0.18 nM
IC50 [2]: 0.14 nM

CC(F)(F)C(=O)N1CCC(CC#N)(n2nc(Nc3ccc(S(=O)(=O)C(C)(C)C)cc3)c3c(=O)[nH]ccc32)CC1 [Example 5-59, 2-(4-(3-((4-(tert-butylsulfonyl)phenyl)amino)-4-oxo-4,5-dihydro-1H-pyrazolo[4,3-c]pyridin-1-yl)-1-(2,2-difluoro-propanoyl)piperidin-4-yl)acetonitrile]
IC50 [1]: 0.15 nM
IC50 [2]: 0.1 nM

CC(C)(C)OC(=O)N1CCC(CC#N)(n2nc(Nc3cc(Cn4cccn4)cc(Cn4cccn4)c3)c3c(=O)[nH]ccc32)CC1 [Example 5-60, tert-butyl 4-(3-(3,5-bis((1H-pyrazol-1-yl)methyl)phenylamino)-4-oxo-4,5-dihydropyrazolo[4,3-c]pyridin-1-yl)-4-(cyanomethyl)piperidine-1-carboxylate]
IC50 [1]: 0.46 nM
IC50 [2]: 1.07 nM

Cc1cc(C)cc(Nc2nn(C3(CC#N)CCN(C(=O)OC(C)(C)C)CC3)c3cc[nH]c(=O)c23)c1 [Example 5-61, tert-butyl 4-(cyanomethyl)-4-(3-(3,5-dimethylphenylamino)-4-oxo-4,5-dihydropyrazolo[4,3-c]pyridin-1-yl)piperidine-1-carboxylate]
IC50 [1]: 12.7 nM
IC50 [2]: 0.64 nM

CC(C)(C)OC(=O)N1CCC(CC#N)(n2nc(Nc3cc(Cn4ccnn4)cc(Cn4ccnn4)c3)c3c(=O)[nH]ccc32)CC1 [Example 5-62, tert-butyl 4-(3-(3,5-bis((1H-1,2,3-triazol-1-yl)methyl)phenylamino)-4-oxo-4,5-dihydropyrazolo[4,3-c]pyridin-1-yl)-4-(cyanomethyl)piperidine-1-carboxylate]
IC50 [1]: 0.32 nM
IC50 [2]: 0.31 nM

CC(C)(C)OC(=O)N1CCC(CC#N)(n2nc(Nc3cc(Cn4nccn4)cc(Cn4nccn4)c3)c3c(=O)[nH]ccc32)CC1 [Example 5-63, tert-butyl 4-(3-(3,5-bis((2H-1,2,3-triazol-2-yl)methyl)phenylamino)-4-oxo-4,5-dihydropyrazolo[4,3-c]pyridin-1-yl)-4-(cyanomethyl)piperidine-1-carboxylate]
IC50 [1]: 0.7 nM
IC50 [2]: 2.1 nM

CC(C)(C)OC(=O)N1CCC(CC#N)(n2nc(Nc3cc(Cn4ccnn4)cc(Cn4nccn4)c3)c3c(=O)[nH]ccc32)CC1 [Example 5-64, tert-butyl 4-(3-(3-((1H-1,2,3-triazol-1-yl)methyl)-5-((2H-1,2,3-triazol-2-yl)methyl)phenylamino)-4-oxo-4,5-dihydropyrazolo [4,3-c]pyridin-1-yl)-4-(cyanomethyl)piperidine-1-carboxylate]
IC50 [1]: 0.46 nM
IC50 [2]: 0.57 nM

Cc1cccc(Nc2nn(C3(CC#N)CCN(C(=O)OC(C)(C)C)CC3)c3cc[nH]c(=O)c23)c1 [Example 5-65, tert-butyl 4-(3-(m-toluidino)-4-oxo-4,5-dihydropyrazolo[4,3-c]pyridin-1-yl)-4-(cyanomethyl)piperidine-1-carboxylate]
IC50 [1]: 3.22 nM
IC50 [2]: 0.21 nM

CC(C)(C)OC(=O)N1CCC(CC#N)(n2nc(Nc3ccc4c(c3)CNC4)c3c(=O)[nH]ccc32)CC1 [Example 5-66, tert-butyl 4-(cyanomethyl)-4-(3-(isoindolin-5-ylamino)-4-oxo-4,5-dihydropyrazolo[4,3-c]pyridin-1-yl)piperidine-1-carboxylate]
IC50 [1]: 0.43 nM
IC50 [2]: 0.26 nM

CC(C)CN1Cc2cc(Nc3nn(C4(CC#N)CCN(C(=O)OC(C)(C)C)CC4)c4cc[nH]c(=O)c34)ccc2S1(=O)=O [Example 5-67]
IC50 [1]: 0.52 nM
IC50 [2]: 0.47 nM

CC(C)(C)OC(=O)N1CCC(CC#N)(n2nc(Nc3ccc4c(c3)CN(CC3CC3)S4(=O)=O)c3c(=O)[nH]ccc32)CC1 [Example 5-68, tert-butyl 4-(cyanomethyl)-4-(3-{[2-(cyclopropylmethyl)-1,1-dioxo-2,3-dihydro-1,2-benzothiazol-5-yl]amino}-4-oxo-1H,4H,5H-pyrazolo[4,3-c]pyridin-1-yl)piperidine-1-carboxylate]
IC50 [1]: 0.33 nM
IC50 [2]: 0.25 nM

COC(=O)N1CCC(CC#N)(n2nc(Nc3ccc4c(c3)CN(C)S4(=O)=O)c3c(=O)[nH]ccc32)CC1 [Example 5-70, methyl 4-(cyanomethyl)-4-[3-[(2-methyl-1,1-dioxo-2,3-dihydro-1,2-benzothiazol-5-yl)amino]-4-oxo-1H,4H,5H-pyrazolo[4,3-c]pyridin-1-yl]piperidine-1-carboxylate]
IC50 [1]: 0.58 nM
IC50 [2]: 0.07 nM

COC(=O)N1CCC(CC#N)(n2nc(Nc3ccc4c(c3)CN(C(C)(C)C)S4(=O)=O)c3c(=O)[nH]ccc32)CC1 [Example 5-71, methyl 4-{3-[(2-tert-butyl-1,1-dioxo-2,3-dihydro-1,2-benzothiazol-5-yl)amino]-4-oxo-1H,4H,5H-pyrazolo [4,3-c]pyridin-1-yl}-4-(cyanomethyl)piperidine-1-carboxylate]
IC50 [1]: 0.15 nM
IC50 [2]: 0.08 nM

CCN1Cc2cc(Nc3nn(C4(CC#N)CCN(C(=O)OC)CC4)c4cc[nH]c(=O)c34)ccc2S1(=O)=O [Example 5-72, methyl 4-{3-[(2-ethyl-1,1-dioxo-2,3-dihydro-1,2-benzothiazol-5-yl)amino]-4-oxo-1H,4H,5H-pyrazolo [4,3-c]pyridin-1-yl}-4-(cyanomethyl)piperidine-1-carboxylate]
IC50 [1]: 0.26 nM
IC50 [2]: 0.06 nM

COC(=O)N1CCC(CC#N)(n2nc(Nc3ccc4c(c3)CN(CC(C)C)S4(=O)=O)c3c(=O)[nH]ccc32)CC1 [Example 5-73, methyl 4-(cyanomethyl)-4-(3-{[2-(2-methylpropyl)-1,1-dioxo-2,3-dihydro-1,2-benzothiazol-5-yl]amino}-4-oxo-1H,4H,5H-pyrazolo [4,3-c]pyridin-1-yl) piperidine-1-carboxylate]
IC50 [1]: 0.35 nM
IC50 [2]: 0.12 nM

COC(=O)N1CCC(CC#N)(n2nc(Nc3ccc4c(c3)CN(CC3CC3)S4(=O)=O)c3c(=O)[nH]ccc32)CC1 [Example 5-74, methyl 4-(cyanomethyl)-4-(3-{[2-(cyclopropylmethyl)-1,1-dioxo-2,3-dihydro-1,2-benzothiazol-5-yl]amino}-4-oxo-1H,4H,5H-pyrazolo [4,3-c]pyridin-1-yl) piperidine-1-carboxylate]
IC50 [1]: 0.27 nM
IC50 [2]: 0.06 nM

COC(=O)N1CCC(CC#N)(n2nc(Nc3ccc4c(c3)CN(CC3CCCC3)S4(=O)=O)c3c(=O)[nH]ccc32)CC1 [Example 5-75, methyl 4-(cyanomethyl)-4-(3-{[2-(cyclopentylmethyl)-1,1-dioxo-2,3-dihydro-1,2-benzothiazol-5-yl]amino}-4-oxo-1H,4H,5H-pyrazolo [4,3-c]pyridin-1-yl) piperidine-1-carboxylate]
IC50 [1]: 0.37 nM
IC50 [2]: 0.12 nM

CC(C)(C)OC(=O)N1CCC(CC#N)(n2nc(Nc3ccc(S(=O)(=O)C(F)(F)F)cc3)c3c(=O)[nH]ccc32)CC1 [Example 5-76, tert-butyl 4-(cyanomethyl)-4-[4-oxo-3-({4-[(trifluoromethyl)sulfonyl]phenyl}amino)-4,5-dihydro-1H-pyrazolo [4,3-c]pyridin-1-yl] piperidine-1-carboxylate]
IC50 [1]: 7.89 nM
IC50 [2]: 0.9 nM

CC(C)(C)OC(=O)N1CCC(CC#N)(n2nc(Nc3ccnc(F)c3)c3c(=O)[nH]ccc32)CC1 [Example 5-78, tert-butyl 4-(cyanomethyl)-4-{3-[(2-fluoropyridin-4-yl)amino]-4-oxo-4,5-dihydro-1H-pyrazolo[4,3-c]pyridin-1-yl}piperidine-1-carboxylate]
IC50 [1]: 2.12 nM
IC50 [2]: 0.18 nM

CC(C)(C)N1Cc2cc(Nc3nn(C4(CC#N)CCCCC4)c4cc[nH]c(=O)c34)ccc2S1(=O)=O [Example 5-80, 2-(1-(3-((2-(tert-butyl)-1,1-dioxido-2,3-dihydrobenzo[d]isothiazol-5-yl)amino)-4-oxo-4,5-dihydro-1H-pyrazolo[4,3-c]pyridin-1-yl)cyclohexyl)acetonitrile]
IC50 [1]: 1.21 nM
IC50 [2]: 0.08 nM

CN1Cc2cc(Nc3nn(C4(CC#N)CCCCC4)c4cc[nH]c(=O)c34)ccc2S1(=O)=O [Example 5-81, 2-(1-(3-((2-methyl-1,1-dioxido-2,3-dihydrobenzo[d]isothiazol-5-yl)amino)-4-oxo-4,5-dihydro-1H-pyrazolo[4,3-c]pyridin-1-yl)cyclohexyl)acetonitrile]
IC50 [1]: 3.73 nM
IC50 [2]: 0.24 nM

CC(C)(C)OC(=O)N1CCC(CC#N)(n2nc(Nc3ccc4c(c3)CCS4(=O)=O)c3c(=O)[nH]ccc32)CC1 [Example 5-82, tert-butyl 4-(cyanomethyl)-4-(3-((1,1-dioxido-2,3-dihydrobenzo[d]thiophen-5-yl)amino)-4-oxo-4,5-dihydro-1H-pyrazolo[4,3-c]pyridin-1-yl)piperidine-1-carboxylate]
IC50 [1]: 0.31 nM
IC50 [2]: 0.1 nM
